Results reported in the METLIN SMRT retention time set (Domingo-Almenara et al. 2019).

Experiment: gradient 5% acetonitrile 3 min, to 50% in 2 min, to 85% in 15 min, held 3 min, 100 µL/min
Settings: column: Zorbax Extend-C18 2.1 x 50 mm; eluents: water / acetonitrile, 0.1% formic acid
Summary of the method: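 Values are retention times taken from adduct peaks that software picked and an analyst inspected. The pure standards were run as mixtures of ~100 molecules on HPLC linked to a quadrupole time-of-flight mass spectrometer, in positive and negative ionization mode. A Zorbax Extend-C18 column (2.1 × 50 mm, 1.8 μm) was used at 100 μL/min with water and acetonitrile, each including 0.1% formic acid.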

RP-LC retention time [s]	Structure (SMILES)
645	O=C(c1nc(-c2cccc(F)c2)n2c1CCCCC2)N1CCN(c2ccccn2)CC1
703	CC1CCN(C(=O)c2ccc3c(c2)N(CC(=O)N2CCCC2)C(=O)CO3)CC1
694	CCc1nc2cc(N3CCCC(C(=O)NCC4CCCO4)C3)cnc2nc1CC (centres undefined)
1090	COc1cc(OC)cc(-c2nc(-c3cn(Cc4ccc(C)cc4)nn3)no2)c1
754	O=C(Cn1c(=O)n(-c2ccc(F)cc2)c2ncccc21)N1CCCCC1
665	CCNc1cc(N2CCC(CCC(=O)Nc3ccc(OC)cc3OC)CC2)ncn1
703	COc1cccc(CN2CCC3(CC2)C(OC)C(=O)N3c2cccc(F)c2)n1 (centres undefined)
916	Cc1cccc(NC(=O)CN2C(=O)CCCc3cc(S(=O)(=O)N4CCCC4)ccc32)c1C
623	COc1cc(C)c(Cc2cnc(N)nc2N)cc1OC
599	Cc1noc(C)c1CN1CCN(C(=O)NCc2cccc(F)c2)CC1
677	Cc1oc(C2CCN(C(=O)C3CCN(S(=O)(=O)N4CCOCC4)CC3)CC2)nc1C(=O)N1CCCC1
1020	Cc1nn(Cc2nc(-c3ccc(NC(=O)C4CCCCC4)cc3)oc2C)c(C)c1C
798	Cc1cc(C)cc(C(=O)N2CCCC(C(=O)NCc3ccco3)C2)c1 (centres undefined)
771	COc1ccc(NC(=O)c2cnc3c(c2)c(=O)n(C)c(=O)n3-c2ccccc2)cc1OC
891	CC(=O)N1CCc2cc(S(=O)(=O)C(C)CC(=O)N3CCN(c4cccc(Cl)c4)CC3)ccc21 (centres undefined)
586	O=C(Cn1cnc2ccccc21)N1CCN(Cc2nc(-c3ccc(F)cc3)cs2)CC1
742	CC(C)c1noc(-c2cccnc2N2CCCN(Cc3cccc(Cl)c3)CC2)n1
605	CC(CCNC(=O)c1nnc(-c2ccc(S(=O)(=O)N3CCOCC3)cc2)o1)N1CCCCCC1 (centres undefined)

RP-LC retention time [s]	Structure (SMILES)
824	N#Cc1ccc(N2C=C(C(=O)N3CCCCC3)S(=O)(=O)c3ccc(F)cc32)cc1
811	CCn1c(=O)c2ccn(CC(=O)NCc3cc(OC)ccc3OC)c2n(CC)c1=O
696	COc1ccc(NS(=O)(=O)c2cc3n(c2)CCN(C)C3=O)cc1Cl
644	CC(C)c1nnc(-c2coc(S(=O)(=O)N3CCN(C4CCCCC4)CC3)c2)o1
735	CCOC(=O)c1cccc(NC(=O)C2CCN(S(=O)(=O)c3cn(C)cn3)CC2)c1
603	O=C(Cc1ccc(Cl)cc1)N1CCN(c2ccc(Nc3ccccn3)nn2)CC1
778	Cc1cccc(N2CCN(CCNC(=O)c3cc4sccc4n3C)CC2)c1C
734	Cc1oc(-c2[nH]ncc2C(=O)N2CCCC2)cc1S(=O)(=O)Nc1ccc(F)c(F)c1
756	CC(C)CC(=O)Nc1ccc(-n2cnc(C(=O)N3CCCC(C)C3)c2)nc1 (centres undefined)
921	CCc1ccc(NC(=O)Cn2c(=O)nc(N3CCC(C)CC3)c3ccccc32)cc1
616	CC1=C(c2ccc(C)cc2)S(=O)(=O)N=C1N1CCCN(C(=O)Cn2ccnc2C)CC1
843	Cc1cc2c(cc1S(=O)(=O)N1CCCC1C(=O)Nc1ccc(Cl)cc1F)OCC(=O)N2 (centres undefined)
875	CCOc1ccc(NC(=O)c2sc(N3CCCC3=O)nc2CC)cc1
738	COc1ccc(N2CCN(C(=O)C3CCCN(c4ncnc5c4nc4n5CCCCC4)C3)CC2)cc1 (centres undefined)
605	CCc1nc2cc(N3CCC(C(=O)NCCN4CCCCC4C)CC3)cnc2nc1CC (centres undefined)
1000	Cc1cc2nc(C(=O)Nc3ccccc3F)cc(C)n2n1
884	CCN(CC)S(=O)(=O)c1ccc(NC(=O)N2CCCC(C(=O)Nc3ccc(OC)cc3)C2)s1 (centres undefined)
669	COc1cc(NC(=O)N2CCN(c3cc(C)nc(N4CCCCC4)n3)CC2)cc(OC)c1OC

The remaining lines, values behind:

Structure (SMILES)	RP-LC retention time [s]
CC(C)n1c(C2CCN(C(=O)Cc3cccc(Cl)c3)C2)nc2ccncc21 (centres undefined)	567
COc1ccc(OC)c(NC(=O)C(=O)c2ccc[nH]2)c1	909
Cc1oc2ccn(Cc3cccc(F)c3)c(=O)c2c1C(=O)NCc1ccc(F)cc1F	954
CCn1cc(Br)c(C(=O)Nc2ccc(F)c(Cl)c2)n1	1020
Cc1ccc(NC(=O)C2CCN(S(C)(=O)=O)c3cc(C)ccc3O2)cc1 (centres undefined)	976
COc1ccc(Cl)cc1NC(=O)Nc1c(-c2ccncc2)nc2ccccn12	642
Cc1ccccc1C(=O)CC1(O)C(=O)Nc2ccc(F)cc21 (centres undefined)	730
CC(C)NC(=O)c1ccc(OCC2CCN(C(=O)c3ccc(F)cc3)CC2)cc1	826
CCOC(=O)c1c(C)oc2ncnc(NCc3ccccn3)c12	671
Cc1cc(OCC(=O)Nc2nc(-c3ccccc3)cs2)cc(C)c1Cl	1250
CCOC(=O)c1[nH]c(C)c(CCC(=O)NC(C)c2ccc3c(c2)OCCO3)c1C (centres undefined)	821
Cc1noc(C)c1C1CCCN1C(=O)Nc1ccccc1C(F)(F)F (centres undefined)	879
CC(C)c1ccc(S(=O)(=O)c2cnc(N3CCC4(CC3)OCCO4)nc2N)cc1	1020
O=C(Cn1ccc2ccn(Cc3ccccc3F)c2c1=O)NCc1ccc2c(c1)OCO2	894
CCN(CC)c1ccc(-c2noc(CN3CCC(C)CC3)n2)cn1	593
CC(C)CN(Cc1cccnc1)C1CN(S(=O)(=O)Cc2ccccc2F)C1	734
O=C(c1cccs1)N1CCCC(c2ccnc(-c3ccccc3)n2)C1 (centres undefined)	1020
O=C(Cn1nc2c(Oc3cccc(F)c3)nccn2c1=O)Nc1cc(F)ccc1F	885
CCOc1ccc(-c2noc(Cn3ccn4nc(-c5ccc(F)cc5)cc4c3=O)n2)cc1OC	819
CCc1nc(-c2cc(S(=O)(=O)Nc3cc(C)ccc3C)c(C)s2)cs1	1160
O=C(Nc1ccc(Br)cc1)C1CCCN(c2nccnc2Oc2ccccc2)C1 (centres undefined)	1140
CCN(CC)C(=O)Cn1c(=O)c2cnc(-c3ccc(C)cc3)nc2n(C)c1=O	985
CCOc1ccc(CC(=O)Nc2ccc3c(c2)Sc2ncccc2C(=O)N3C)cc1	931
Cc1cc(C(=O)Nc2nc(-c3nc4ccccc4s3)cs2)c(C)o1	1040
COC(=O)c1ccc(C2NC(=O)c3[nH]nc(-c4ccc(OC)cc4)c32)cc1 (centres undefined)	702
COCc1ccc(C(=O)Nc2nnc(C)s2)o1	595
Cc1ccc(-c2nnc(Cc3nc(-c4cccc(Br)c4)no3)o2)cc1C	1270

Structure (SMILES)	RP-LC retention time [s]
CCN1CCCn2cc(S(=O)(=O)Nc3ccc(F)c(F)c3)cc2C1=O	768
COCCCn1c(=O)c2ccccc2n(Cc2nc(-c3cccc(Br)c3)no2)c1=O	1190
Cc1ccc(C(=O)Nc2nc(-c3ccc4c(c3)N(C)C(=O)CO4)cs2)cc1	952
COc1ccc(C)cc1Nc1ncnc(N)c1[N+](=O)[O-]	780
O=C1OCC/C1=C\c1ccc2c(c1)OCO2	830
Cc1cccc(NC(=O)C2CCN(S(C)(=O)=O)c3ccccc3O2)c1C (centres undefined)	844
Cn1ccc(C(=O)N2CCCC2c2ccc(Cl)cc2)n1 (centres undefined)	824
O=C(Nc1ccc(Br)cc1)Nc1ccccc1Cl	1140
Cc1ccc(C(C)NC(=O)Cn2ccc3c(C)nn(C)c3c2=O)cc1C (centres undefined)	784
CCn1ncc2ccc(C(=O)NC)cc21	608
CCc1ccccc1NC(=O)c1ncn2c1C(=O)N(C1CC1)C(C)(C(=O)NC1CCCC1)C2 (centres undefined)	828
CC(C)OCCCNC(=O)c1ccc2nc(Cc3ccccc3)oc2c1	884
CN(C)c1ccc(-c2nc(C3CC(=O)N(c4ccc(F)cc4)C3)no2)cc1 (centres undefined)	975
CCCN(CC1CCOC1)C(=O)Nc1cccc(SC)c1 (centres undefined)	831
CCOC(=O)c1c(C)[nH]c(C)c1S(=O)(=O)N1CCC(C(=O)NCc2ccccc2)CC1	754
Cc1nn(C2CCS(=O)(=O)C2)c(C)c1C(=O)O (centres undefined)	571
CCc1ccccc1S(=O)(=O)N1C[C@H](F)C[C@@H]1C(=O)N1CCOCC1	740
CC(=O)Nc1ccc(NC(=O)Cn2cccc(-c3nc(-c4ccccc4)no3)c2=O)cc1	694
CN(C)[C@@H]1CN(C(=O)C2CCCCC2)CC[C@@H]1CO	585
Cn1cc(CC(=O)NCC#CCN2CCc3ccccc3C2)c2ccccc21	578
CC(C)NC(=O)CCc1c(-c2ccccc2)nc2ccccn12	595
CCOC(=O)c1c(C)[nH]c(C(=O)N2CCC(CC(=O)NCCN(C)C)CC2)c1C	569
Cc1noc(C)c1CCNC(=O)c1cn2ccccc2n1	593
Cc1ccc(CNC(=O)C2CC(=O)N(c3ccc4c(c3)CCN4C(=O)C3CC3)C2)cc1 (centres undefined)	756
CC(C)(Oc1ccc(Cl)cc1)C(=O)NC1CCCCC1N1C(=O)CSC1=O (centres undefined)	972
CS(=O)(=O)Nc1cccc(C2=NN(S(C)(=O)=O)C(c3cccc([N+](=O)[O-])c3)C2)c1 (centres undefined)	740
